Results: paper PMC5218480 (PLoS ONE, 2017)

Test system: MV-4-11 cells
Test: Gene expression microarray analysis (Affymetrix PrimeView) and GSEA
Type: cell-based, human
Parameters: RFU PODN (11730768_x_at) / Fold change /veh PODN (11730768_x_at) / RFU LINC00158 (11744669_a_at) / Fold change /veh LINC00158 (11744669_a_at) / RFU DUSP10 (11751237_a_at) / Fold change /veh DUSP10 (11751237_a_at) / RFU ID3 (11757404_x_at) / Fold change /veh ID3 (11757404_x_at) / RFU PLEKHG5 (11737974_s_at) / Fold change /veh PLEKHG5 (11737974_s_at) / RFU LRRC4B (11730491_at) / Fold change /veh LRRC4B (11730491_at) / RFU GIMAP4 (11747438_a_at) / Fold change /veh GIMAP4 (11747438_a_at) / RFU KRT8 (11758183_x_at) / Fold change /veh KRT8 (11758183_x_at) / RFU CNN1 (11734310_a_at) / Fold change /veh CNN1 (11734310_a_at) / RFU VPS37D (11726825_at) / Fold change /veh VPS37D (11726825_at) / RFU C10orf10 (11716522_x_at) / Fold change /veh C10orf10 (11716522_x_at) / RFU KIR2DL2 /// KIR2DL4 /// KIR2DL5A /// KIR2DL5B /// KIR2DS1 /// KIR2DS2 /// KIR2DS3 /// KIR2DS4 /// KIR3DL3 /// KIR3DL3 /// KIR3DS1 (11738374_at) / Fold change /veh KIR2DL2 /// KIR2DL4 /// KIR2DL5A /// KIR2DL5B /// KIR2DS1 /// KIR2DS2 /// KIR2DS3 /// KIR2DS4 /// KIR3DL3 /// KIR3DL3 /// KIR3DS1 (11738374_at) / RFU C1QL1 (11718748_at) / Fold change /veh C1QL1 (11718748_at) / RFU TMPRSS4 (11747572_a_at) / Fold change /veh TMPRSS4 (11747572_a_at) / RFU HAMP (11756126_x_at) / Fold change /veh HAMP (11756126_x_at) / RFU RNFT2 (11725882_a_at) / Fold change /veh RNFT2 (11725882_a_at) / RFU NR4A2 (11747474_a_at) / Fold change /veh NR4A2 (11747474_a_at) / RFU ABCC12 (11746883_a_at) / Fold change /veh ABCC12 (11746883_a_at) / RFU TMEM136 (11760407_x_at) / Fold change /veh TMEM136 (11760407_x_at) / RFU CLDN22 /// WWC2 (11732394_at) / Fold change /veh CLDN22 /// WWC2 (11732394_at) / RFU HLA-DPB1 (11760878_x_at) / Fold change /veh HLA-DPB1 (11760878_x_at) / RFU SPINT1 (11716480_a_at) / Fold change /veh SPINT1 (11716480_a_at) / RFU GAP43 (11754022_s_at) / Fold change /veh GAP43 (11754022_s_at) / RFU A4GNT (11735810_at) / Fold change /veh A4GNT (11735810_at) / RFU PRB3 (11715151_x_at) / Fold change /veh PRB3 (11715151_x_at) / RFU TUBB4B (11761932_at) / Fold change /veh TUBB4B (11761932_at) / RFU CAPN14 (11732068_a_at) / Fold change /veh CAPN14 (11732068_a_at) / RFU TMCC2 (11721928_a_at) / Fold change /veh TMCC2 (11721928_a_at) / RFU IRGQ (11745062_a_at) / Fold change /veh IRGQ (11745062_a_at) / RFU FAM174B (11720279_a_at) / Fold change /veh FAM174B (11720279_a_at) / RFU TMPRSS4 (11748680_a_at) / Fold change /veh TMPRSS4 (11748680_a_at) / RFU FAM212B (11763350_a_at) / Fold change /veh FAM212B (11763350_a_at) / RFU PLEKHG5 (11743358_a_at) / Fold change /veh PLEKHG5 (11743358_a_at) / RFU ZSCAN30 (11745921_a_at) / Fold change /veh ZSCAN30 (11745921_a_at) / RFU CMKLR1 (11741424_a_at) / Fold change /veh CMKLR1 (11741424_a_at) / RFU LOC101060620 /// MAPK8IP1 (11723275_at) / Fold change /veh LOC101060620 /// MAPK8IP1 (11723275_at) / RFU SPTSSB (11747773_x_at) / Fold change /veh SPTSSB (11747773_x_at) / RFU PRSS12 (11739890_at) / Fold change /veh PRSS12 (11739890_at) / RFU BIN1 (11741810_x_at) / Fold change /veh BIN1 (11741810_x_at) / RFU WNT11 (11732464_a_at) / Fold change /veh WNT11 (11732464_a_at) / RFU C10orf10 (11716521_a_at) / Fold change /veh C10orf10 (11716521_a_at) / RFU C5orf56 (11738089_at) / Fold change /veh C5orf56 (11738089_at) / RFU CYB561 (11721691_x_at) / Fold change /veh CYB561 (11721691_x_at) / RFU ANKRD19P (11752326_a_at) / Fold change /veh ANKRD19P (11752326_a_at) / RFU OR2T12 /// OR2T33 /// OR2T8 (11738714_s_at) / Fold change /veh OR2T12 /// OR2T33 /// OR2T8 (11738714_s_at) / RFU VCAN (11748164_a_at) / Fold change /veh VCAN (11748164_a_at) / RFU JSRP1 (11732532_at) / Fold change /veh JSRP1 (11732532_at) / RFU KRTAP10-11 (11738290_x_at) / Fold change /veh KRTAP10-11 (11738290_x_at) / RFU MYO3A (11730013_a_at) / Fold change /veh MYO3A (11730013_a_at) / RFU EBF3 (11725865_a_at) / Fold change /veh EBF3 (11725865_a_at) / RFU CAMK2N1 (11719241_x_at) / Fold change /veh CAMK2N1 (11719241_x_at) / RFU C5orf56 (11738088_a_at) / Fold change /veh C5orf56 (11738088_a_at) / RFU OLFML3 (11715873_a_at) / Fold change /veh OLFML3 (11715873_a_at) / RFU LOC100653217 /// NTM (11731650_a_at) / Fold change /veh LOC100653217 /// NTM (11731650_a_at) / RFU MAPK11 (11762145_a_at) / Fold change /veh MAPK11 (11762145_a_at) / RFU FIZ1 (11724087_x_at) / Fold change /veh FIZ1 (11724087_x_at) / RFU OASL (11726364_x_at) / Fold change /veh OASL (11726364_x_at) / RFU SOX15 (11748057_x_at) / Fold change /veh SOX15 (11748057_x_at) / RFU CD79A (11719716_a_at) / Fold change /veh CD79A (11719716_a_at) / RFU HIST1H1D (11736915_at) / Fold change /veh HIST1H1D (11736915_at) / RFU CASKIN2 (11723855_a_at) / Fold change /veh CASKIN2 (11723855_a_at) / RFU LOC730098 (11760151_x_at) / Fold change /veh LOC730098 (11760151_x_at) / RFU OR4N2 (11742367_at) / Fold change /veh OR4N2 (11742367_at) / RFU PRRT2 (11749266_a_at) / Fold change /veh PRRT2 (11749266_a_at) / RFU SNX32 (11753110_a_at) / Fold change /veh SNX32 (11753110_a_at) / RFU CDHR5 (11726645_a_at) / Fold change /veh CDHR5 (11726645_a_at) / RFU RCAN1 (11760418_a_at) / Fold change /veh RCAN1 (11760418_a_at) / RFU FAM167A (11723789_a_at) / Fold change /veh FAM167A (11723789_a_at) / RFU FAM26E (11764081_at) / Fold change /veh FAM26E (11764081_at) / RFU ISYNA1 (11749810_s_at) / Fold change /veh ISYNA1 (11749810_s_at) / RFU ACY1 (11761880_at) / Fold change /veh ACY1 (11761880_at) / RFU 11764098_at / Fold change /veh 11764098_at / RFU SAMD14 (11745864_x_at) / Fold change /veh SAMD14 (11745864_x_at) / RFU NPB (11741838_a_at) / Fold change /veh NPB (11741838_a_at) / RFU TMPRSS6 (11731388_a_at) / Fold change /veh TMPRSS6 (11731388_a_at) / RFU KRTAP10-2 (11738614_at) / Fold change /veh KRTAP10-2 (11738614_at) / RFU ARHGAP8 /// PRR5-ARHGAP8 (11727945_x_at) / Fold change /veh ARHGAP8 /// PRR5-ARHGAP8 (11727945_x_at) / RFU KRTAP5-7 /// NADSYN1 (11734609_at) / Fold change /veh KRTAP5-7 /// NADSYN1 (11734609_at) / RFU RASL12 (11751679_a_at) / Fold change /veh RASL12 (11751679_a_at) / RFU CDKN2B (11736163_a_at) / Fold change /veh CDKN2B (11736163_a_at) / RFU PRF1 (11729649_at) / Fold change /veh PRF1 (11729649_at) / RFU, ZNF638 /// ZNF638-IT1 / Fold change vs veh, ZNF638 /// ZNF638-IT1 / RFU, PANK3 / Fold change vs veh, PANK3 / RFU, SH3YL1 / Fold change vs veh, SH3YL1 / RFU, ZEB2 / Fold change vs veh, ZEB2 / RFU, NRIP1 / Fold change vs veh, NRIP1 / RFU, PTTG1IP / Fold change vs veh, PTTG1IP / RFU, CAPN2 / Fold change vs veh, CAPN2 / RFU, MED14 / Fold change vs veh, MED14 / RFU, SNORA58 / Fold change vs veh, SNORA58 / RFU, C1orf63 / Fold change vs veh, C1orf63 / RFU, LRRFIP1 / Fold change vs veh, LRRFIP1 / RFU, NDUFAF7 / Fold change vs veh, NDUFAF7 / RFU, SLC12A2 / Fold change vs veh, SLC12A2 / RFU, IBTK / Fold change vs veh, IBTK / RFU, ESF1 / Fold change vs veh, ESF1 / Fold change vs veh, TMEM50B / RFU, TAOK1 / Fold change vs veh, TAOK1 / RFU, ACBD3 / Fold change vs veh, ACBD3 / RFU, TMA16 / Fold change vs veh, TMA16 / RFU, RWDD3 / Fold change vs veh, RWDD3 / RFU, BCAT1 / Fold change vs veh, BCAT1 / RFU, EDEM3 / Fold change vs veh, EDEM3 / RFU, TMEM33 / Fold change vs veh, TMEM33 / RFU, WDR75 / Fold change vs veh, WDR75 / RFU, AHCTF1 / Fold change vs veh, AHCTF1 / RFU, TFRC / Fold change vs veh, TFRC / RFU, ZDHHC17 / Fold change vs veh, ZDHHC17 / RFU, NOM1 / Fold change vs veh, NOM1 / RFU, ARL8B / Fold change vs veh, ARL8B / RFU, ZBTB11 / Fold change vs veh, ZBTB11 / RFU, TAMM41 / Fold change vs veh, TAMM41 / RFU, KIAA1704 /// LOC100996395 / Fold change vs veh, KIAA1704 /// LOC100996395 / RFU, ING1 / Fold change vs veh, ING1 / RFU, TRMT61B / Fold change vs veh, TRMT61B / RFU, FUBP3 / Fold change vs veh, FUBP3 / RFU, TP53 / Fold change vs veh, TP53 / RFU, TNKS2 / Fold change vs veh, TNKS2 / RFU, ZFP14 / Fold change vs veh, ZFP14 / RFU, ACTR2 / Fold change vs veh, ACTR2 / RFU, PPP3R1 / Fold change vs veh, PPP3R1 / RFU, PIK3R1 / Fold change vs veh, PIK3R1 / RFU, HNRNPA1 / Fold change vs veh, HNRNPA1 / RFU, RNF170 / Fold change vs veh, RNF170 / RFU, ZNF28 / Fold change vs veh, ZNF28 / RFU, RNGTT / Fold change vs veh, RNGTT / RFU, OGT / Fold change vs veh, OGT / RFU, BRD1 / Fold change vs veh, BRD1 / RFU, MARS / Fold change vs veh, MARS / RFU, ZNF655 / Fold change vs veh, ZNF655 / RFU, FAHD1 / Fold change vs veh, FAHD1 / RFU, BDP1 / Fold change vs veh, BDP1 / RFU, LRRCC1 / Fold change vs veh, LRRCC1 / RFU, ARID1A / Fold change vs veh, ARID1A / RFU, ZNF146 / Fold change vs veh, ZNF146 / RFU, ZNF330 / Fold change vs veh, ZNF330 / RFU, GPN3 / Fold change vs veh, GPN3 / RFU, C9orf123 / Fold change vs veh, C9orf123 / RFU, N4BP2L2 / Fold change vs veh, N4BP2L2 / RFU, ARFIP1 / Fold change vs veh, ARFIP1 / RFU, FAM179B / Fold change vs veh, FAM179B / RFU, BCL10 / Fold change vs veh, BCL10 / RFU, UHRF1BP1L / Fold change vs veh, UHRF1BP1L / RFU, BET1 / Fold change vs veh, BET1 / RFU, CNOT2 / Fold change vs veh, CNOT2 / RFU, ZNF268 / Fold change vs veh, ZNF268 / Fold change vs veh, ZNF507 / RFU, DGCR2 / Fold change vs veh, DGCR2 / RFU, WDSUB1 / Fold change vs veh, WDSUB1 / Fold change vs veh, HSP90B1 /// MIR3652 / RFU, ADSS / Fold change vs veh, ADSS / RFU, GK / Fold change vs veh, GK / RFU, ZNF148 / Fold change vs veh, ZNF148 / RFU, TAF9 / Fold change vs veh, TAF9 / RFU, SLC1A5 / Fold change vs veh, SLC1A5 / RFU, SLMO2 / Fold change vs veh, SLMO2 / RFU, ABCC4 / Fold change vs veh, ABCC4 / RFU, LOC101060439 /// RAP1B / Fold change vs veh, LOC101060439 /// RAP1B / RFU, RFX7 / Fold change vs veh, RFX7 / RFU, GTPBP10 / Fold change vs veh, GTPBP10 / RFU, CNEP1R1 / Fold change vs veh, CNEP1R1 / RFU, BIVM-ERCC5 /// ERCC5 / Fold change vs veh, BIVM-ERCC5 /// ERCC5 / RFU, ILF3 / Fold change vs veh, ILF3 / RFU 11762660_at / Fold change /veh 11762660_at / RFU VCAN (11757783_s_at) / Fold change /veh VCAN (11757783_s_at) / RFU DDX43 (11728927_at) / Fold change /veh DDX43 (11728927_at) / RFU KRT8 (11758188_x_at) / Fold change /veh KRT8 (11758188_x_at) / RFU NKD1 (11759106_at) / Fold change /veh NKD1 (11759106_at) / RFU SRD5A1 (11742802_a_at) / Fold change /veh SRD5A1 (11742802_a_at) / RFU TPSAB1 /// TPSB2 (11721975_s_at) / Fold change /veh TPSAB1 /// TPSB2 (11721975_s_at) / RFU GSTM3 (11746129_a_at) / Fold change /veh GSTM3 (11746129_a_at) / RFU IL23R (11737362_x_at) / Fold change /veh IL23R (11737362_x_at) / RFU TMEM51 (11727254_a_at) / Fold change /veh TMEM51 (11727254_a_at) / RFU PIWIL2 (11732686_x_at) / Fold change /veh PIWIL2 (11732686_x_at) / RFU ORM1 (11744905_x_at) / Fold change /veh ORM1 (11744905_x_at) / RFU CCDC152 (11743942_at) / Fold change /veh CCDC152 (11743942_at) / RFU ECM1 (11717891_a_at) / Fold change /veh ECM1 (11717891_a_at) / RFU IL23R (11748794_a_at) / Fold change /veh IL23R (11748794_a_at) / RFU TNFAIP8L3 (11732012_x_at) / Fold change /veh TNFAIP8L3 (11732012_x_at) / RFU MBOAT4 (11741988_at) / Fold change /veh MBOAT4 (11741988_at) / RFU 11764193_at / Fold change /veh 11764193_at / RFU TMEM53 (11763286_at) / Fold change /veh TMEM53 (11763286_at) / RFU MAGEB2 (11727129_at) / Fold change /veh MAGEB2 (11727129_at) / RFU TMEM200A (11744735_a_at) / Fold change /veh TMEM200A (11744735_a_at) / RFU CCDC152 (11751479_a_at) / Fold change /veh CCDC152 (11751479_a_at) / RFU FAM211A (11726209_a_at) / Fold change /veh FAM211A (11726209_a_at) / RFU RGS16 (11746705_a_at) / Fold change /veh RGS16 (11746705_a_at) / RFU VCAN (11755009_s_at) / Fold change /veh VCAN (11755009_s_at) / RFU RHOB (11743442_s_at) / Fold change /veh RHOB (11743442_s_at) / RFU RGS16 (11720943_a_at) / Fold change /veh RGS16 (11720943_a_at) / RFU RGS16 (11720944_at) / Fold change /veh RGS16 (11720944_at) / RFU, VPS4B / Fold change vs veh, VPS4B / RFU, CREB1 / Fold change vs veh, CREB1 / RFU, DNAJC13 / Fold change vs veh, DNAJC13 / RFU, GNAQ / Fold change vs veh, GNAQ / RFU, CDK5R1 / Fold change vs veh, CDK5R1 / RFU, ZRANB3 / Fold change vs veh, ZRANB3 / RFU, CUL4A / Fold change vs veh, CUL4A / RFU, CCNY / Fold change vs veh, CCNY / RFU, UFL1 / Fold change vs veh, UFL1 / RFU, COG3 / Fold change vs veh, COG3 / RFU, DIAPH2 / Fold change vs veh, DIAPH2 / RFU, SKA2 / Fold change vs veh, SKA2 / RFU, AFF3 / Fold change vs veh, AFF3 / RFU, LMF1 / Fold change vs veh, LMF1 / RFU, IPO11 / Fold change vs veh, IPO11 / RFU, DFFB / Fold change vs veh, DFFB / RFU, FOXP1 / Fold change vs veh, FOXP1 / RFU, CARD8 / Fold change vs veh, CARD8 / RFU, STRN3 / Fold change vs veh, STRN3 / RFU, ADK / Fold change vs veh, ADK / RFU, RASSF2 / Fold change vs veh, RASSF2 / RFU, WIPF1 / Fold change vs veh, WIPF1 / RFU, LARP1B / Fold change vs veh, LARP1B / RFU, RASA1 / Fold change vs veh, RASA1 / RFU, RB1 / Fold change vs veh, RB1 / RFU, PPFIA1 / Fold change vs veh, PPFIA1 / RFU, MAT2A / Fold change vs veh, MAT2A / RFU, CCT5 / Fold change vs veh, CCT5 / RFU, WDR92 / Fold change vs veh, WDR92 / RFU, CUX1 / Fold change vs veh, CUX1 / RFU, TTC7A / Fold change vs veh, TTC7A / RFU, TMEM135 / Fold change vs veh, TMEM135 / RFU, DEPTOR / Fold change vs veh, DEPTOR / RFU, CPM / Fold change vs veh, CPM / RFU, DNAJB6 / Fold change vs veh, DNAJB6 / RFU, CACNA2D3 / Fold change vs veh, CACNA2D3 / RFU, DTX4 / Fold change vs veh, DTX4 / RFU, TFCP2 / Fold change vs veh, TFCP2 / RFU, GMCL1 /// GMCL1P1 / Fold change vs veh, GMCL1 /// GMCL1P1 / RFU, AEBP2 / Fold change vs veh, AEBP2 / RFU, SNHG1 /// SNORD22 /// SNORD25 /// SNORD26 /// SNORD27 /// SNORD28 /// SNORD29 /// SNORD31 / Fold change vs veh, SNHG1 /// SNORD22 /// SNORD25 /// SNORD26 /// SNORD27 /// SNORD28 /// SNORD29 /// SNORD31 / Fold change (Aza/veh), C12orf56 (ProbeSet 11735607_a_at) / Fold change (ACY-1035/veh), C12orf56 (ProbeSet 11735607_a_at) / Fold change (Aza/veh), FGFR1OP (ProbeSet 11751329_s_at) / Fold change (ACY-1035/veh), FGFR1OP (ProbeSet 11751329_s_at) / Fold change (Aza/veh), VPS36 (ProbeSet 11739960_a_at) / Fold change (ACY-1035/veh), VPS36 (ProbeSet 11739960_a_at) / RFU SYPL1 (11715823_x_at) / Fold change /veh SYPL1 (11715823_x_at) / RFU IGFBP7 (11715501_s_at) / Fold change /veh IGFBP7 (11715501_s_at) / RFU REEP3 (11722064_at) / Fold change /veh REEP3 (11722064_at) / RFU IGLL1 (11728026_x_at) / Fold change /veh IGLL1 (11728026_x_at): dose or concentration left out as unconfirmed
Conditions: MV-4-11 cells, 48 hours

Nc1ncn([C@@H]2O[C@H](CO)[C@@H](O)[C@H]2O)c(=O)n1 [azacitidine]
Fold change /veh TMCC2 (11721928_a_at): 0.97
